Measured values published in US10464882B2, “Y-type discrete polyethylene glycol derivative and preparation method thereof” (JENKEM TECHNOLOGY CO., LTD. (BEIJING), priority 2015, dated 2019).
Where two headings read alike, the source gives them in different places.

How the values were obtained:
[1] = Comparison test of dispersion of cholesterol and cholesterol derivatives in water; format: physicochemical; details: 20 mg in 50 mL water, 20° C. water bath, shaken vigorously every 5 min for 30 min
[2] = Comparison test of solubility of cholesterol derivatives in water (Chinese pharmacopoeia method); format: physicochemical
Protocol: The solubility of cholesterol derivatives in water was determined according to the method in “Chinese pharmacopoeia”: […] After 30 min, 1.5 mL water was further added, and the resulting mixture was placed in a 20° C. water bath with the same procedure for dissolution. Until 9 mL water was added, the solution was clear. […] After 30 min, 5 mL water was further added, and the resulting mixture was placed in a 20° C. water bath with the same procedure for dissolution until 25 mL water was added. 5 mL solution was taken from the dilute solution, the same procedure was carried out until 10 mL water was added, and the solution was clear.

In the case of COCCOCCOCCOCCOCCOCCOCCOC(=O)O[C@H]1CC[C@@]2(C)C(=CC[C@H]3[C@@H]4CC[C@H]([C@H](C)CCCC(C)C)[C@@]4(C)CC[C@@H]32)C1 [cholesterol derivative of mEG7-OH], the “dispersion in water, naked eye observation” value [1] is reported as “white emulsion” and the solubility in water [2] is reported as 4.61 mg/100 g.
With CC(C)CCC[C@@H](C)[C@H]1CC[C@H]2[C@@H]3CC=C4C[C@@H](O)CC[C@]4(C)[C@H]3CC[C@]12C [cholesterol] the “dispersion in water, naked eye observation” value [1] was “completely insoluble” and the solubility in water ([2]; water, 20° C. water bath, shaken every 5 min for 30 min) was under 0.2 mg/100 g.
